Assay results published in ChEMBL document CHEMBL1146424, “New Steroidal Alkaloids from the Roots of Buxus sempervirens” (1997).
Active and inactive are the calls of the source. No cut-off for these calls is given here.

Legend:
[1] = tested on: Stachybotrys chartarum; assay: Antifungal activity against Stachybotrys atra at […] after 7 days by tube dilution method; assay type: functional, organism-based
[2] = tested on: Lemna minor; assay: Phytotoxicity against Lemna minor L. at 500 ppm; assay type: functional
[3] = tested on: Salmonella typhi; assay: Antibacterial activity against Salmonella typhi at 200 ug/100 uL by agar well diffusion assay; assay type: functional, organism-based; settings: Salmonella enterica subsp. enterica serovar Typhi
[4] = tested on: Microsporum canis; assay: Antifungal activity against Microsporum canis at […] after 7 days by tube dilution method; assay type: functional, organism-based
[5] = tested on: Shigella flexneri; assay: Antibacterial activity against Shigella flexnerii at 200 ug/100 uL by agar well diffusion assay; assay type: functional, organism-based
[6] = tested on: Lemna minor; assay: Phytotoxicity against Lemna minor L. at 5 ppm; assay type: functional
[7] = tested on: Epidermophyton floccosum; assay: Antifungal activity against Epidermophyton floccosum at […] after 7 days by tube dilution method; assay type: functional, organism-based
[8] = tested on: Lemna minor; assay: Phytotoxicity against Lemna minor L. at 50 ppm; assay type: functional
[9] = tested on: Proteus mirabilis; assay: Antibacterial activity against Proteus mirabilis at 200 ug/100 uL by agar well diffusion assay; assay type: functional, organism-based
[10] = tested on: Escherichia coli; assay: Antibacterial activity against Escherichia coli at 200 ug/100 uL by agar well diffusion assay; assay type: functional, organism-based
[11] = tested on: Proteus vulgaris; assay: Antibacterial activity against Proteus vulgaris at 200 ug/100 uL by agar well diffusion assay; assay type: functional, organism-based

For `C[C@@H]([C@H]1[C@H](O)C[C@@]2(C)[C@@H]3CC[C@@H]4C(=CC[C@H](NC(=O)c5ccccc5)C4(C)C)CC3=CC[C@]12C)N(C)C` [16ALPHA-HYDROXY-NA-BENZOYLBUXADINE], the Activity [1] was “Active”, the Activity [2] was 46% and the Activity [3] was “Active”. For the same compound, the Activity [4] was “Active”, the Activity [5] was “Active” and the Activity [6] was 20.3%. The Activity [7] was “Active”, the Activity [8] was 28.6% and the Activity [9] was “Active”. For the same compound, the Activity [10] was “Active” and the Activity [11] was “Active”.
